A short description of experiment [1]: Luminescence Cell-Based Dose Response to Identify Activators of 5'UTR Stem-Loop Driven Prion Protein mRNA Translation in H4-C Neuroglioblastoma Cells. [Related pubchem assays: 1829 (Project Summary), 1814 (Primary HTS)]. The class given is functional.
A short description of experiment [2]: Luminescence Cell-Based Dose Confirmation HTS to Identify Activators of 5'UTR Stem-Loop Driven Alpha-Synuclein mRNA Translation in H4 Neuroglioblastoma Cells. [Related pubchem assays: 1829 (Project Summary), 1814 (Primary HTS)]. The class given is functional.
The nature of experiment [3]: Luminescence Cell-Based Dose Response HTS to Identify Activators of Luciferase Translation or Activity in H4 […] Cells. [Related pubchem assays: 1829 (Project Summary), 1814 (Primary HTS)]. The class given is functional.
Experiment [4] in a line: Luminescence Cell-Based Dose Response to Identify Activators of Luciferase Translation or Activity in H4-C Neuroglioblastoma Cells. [Related pubchem assays: 1829 (Project Summary), 1814 (Primary HTS)]. It counts as functional.
A short description of experiment [5]: Luminescence Cell-Based Dose Confirmation to Identify Activators of 5'UTR Stem-Loop Driven Alpha-Synuclein mRNA Translation in H4 Neuroglioblastoma Cells. [Related pubchem assays: 1829 (Project Summary), 1814 (Primary HTS)]. It counts as functional.
In experiment [6] the target is Heat shock protein HSP 90-alpha (Homo sapiens, UniProt P07900). Briefly: Luminescence-based dose response biochemical high throughput screening assay for inhibitors of the Heat Shock Protein 90 (HSP90). [Related pubchem assays: 1831 (Summary AID.), 1846 (Confirmation screen.), 1789 (Primary screen.)].
The nature of experiment [7]: Luminescent dose response cell-based high throughput screening assay for inhibitors of the Janus kinase 2 mutant JAK2V617F. [Related pubchem assays: 1446 (Primary screen.), 1521 (Confirmation assay.), 1486 (Counter screen.)]. It counts as functional. Background: Counterscreens check selectivity or assay interference.
In another experiment the test system is H4. The experiment is described as follows: Luminescence Cell-Based Dose Response HTS to Identify Activators of 5'UTR Stem-Loop Driven Prion Protein mRNA Translation in H4 Neuroglioblastoma Cells. [Related pubchem assays: 1829 (Project Summary), 1814 (Primary HTS)]. The class given is functional. As to conditions: Homo sapiens.
For a further experiment, the target named is Large T antigen (Simian virus 40, UniProt P03070). The class given is functional, Betapolyomavirus macacae.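 Further: Confirmatory-stage PubChem screen for compounds that inhibit SV40 T antigen.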
The target in experiment [8] is T1, Estrogen receptor beta (Homo sapiens, UniProt Q92731).
Experiment [9] deals with T1, Estrogen receptor beta. The experiment is described as follows: ERβ–SRC-3 coactivator interaction inhibitors, confirmation, orthogonal assay, biochemical, ELISA, streptavidin-HRP readout (AID 1060).
Experiment [10] has as its target T2, Sentrin-specific protease 8 (Homo sapiens, UniProt Q96LD8).
T2 sequence (Q96LD8 whole entry): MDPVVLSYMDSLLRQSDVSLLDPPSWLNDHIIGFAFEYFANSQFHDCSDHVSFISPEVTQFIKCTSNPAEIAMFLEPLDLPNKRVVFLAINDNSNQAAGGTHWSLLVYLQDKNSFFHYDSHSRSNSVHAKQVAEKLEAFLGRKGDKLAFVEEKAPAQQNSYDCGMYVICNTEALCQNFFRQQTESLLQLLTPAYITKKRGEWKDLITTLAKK
Briefly: SENP8 protease inhibitors, SAR follow-up, biochemical, luminescence (AID 504501). The class given is functional.

The target in the next experiment is T3, Caspase-3 (Homo sapiens, UniProt P42574).
T3 sequence (P42574 whole entry): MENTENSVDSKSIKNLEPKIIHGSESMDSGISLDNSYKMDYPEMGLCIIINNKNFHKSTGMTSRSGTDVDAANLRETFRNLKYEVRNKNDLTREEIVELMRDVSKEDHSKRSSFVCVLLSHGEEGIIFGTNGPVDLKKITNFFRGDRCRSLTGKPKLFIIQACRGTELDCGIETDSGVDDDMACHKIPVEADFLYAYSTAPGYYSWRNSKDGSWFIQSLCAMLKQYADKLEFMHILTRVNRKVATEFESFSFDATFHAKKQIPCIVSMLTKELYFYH
Briefly: SAR Analysis of small molecule inhibitors of Sentrin-specific proteases (SENPs) using a Caspase-3 Selectivity assay. [Related pubchem assays (depositor defined):AID2540, AID2599, AID434973, AID489001]. It counts as functional.

The target of experiment [11] is T4, Sentrin-specific protease 6 (Homo sapiens, UniProt Q9GZR1).
T4 sequence (Q9GZR1 whole entry): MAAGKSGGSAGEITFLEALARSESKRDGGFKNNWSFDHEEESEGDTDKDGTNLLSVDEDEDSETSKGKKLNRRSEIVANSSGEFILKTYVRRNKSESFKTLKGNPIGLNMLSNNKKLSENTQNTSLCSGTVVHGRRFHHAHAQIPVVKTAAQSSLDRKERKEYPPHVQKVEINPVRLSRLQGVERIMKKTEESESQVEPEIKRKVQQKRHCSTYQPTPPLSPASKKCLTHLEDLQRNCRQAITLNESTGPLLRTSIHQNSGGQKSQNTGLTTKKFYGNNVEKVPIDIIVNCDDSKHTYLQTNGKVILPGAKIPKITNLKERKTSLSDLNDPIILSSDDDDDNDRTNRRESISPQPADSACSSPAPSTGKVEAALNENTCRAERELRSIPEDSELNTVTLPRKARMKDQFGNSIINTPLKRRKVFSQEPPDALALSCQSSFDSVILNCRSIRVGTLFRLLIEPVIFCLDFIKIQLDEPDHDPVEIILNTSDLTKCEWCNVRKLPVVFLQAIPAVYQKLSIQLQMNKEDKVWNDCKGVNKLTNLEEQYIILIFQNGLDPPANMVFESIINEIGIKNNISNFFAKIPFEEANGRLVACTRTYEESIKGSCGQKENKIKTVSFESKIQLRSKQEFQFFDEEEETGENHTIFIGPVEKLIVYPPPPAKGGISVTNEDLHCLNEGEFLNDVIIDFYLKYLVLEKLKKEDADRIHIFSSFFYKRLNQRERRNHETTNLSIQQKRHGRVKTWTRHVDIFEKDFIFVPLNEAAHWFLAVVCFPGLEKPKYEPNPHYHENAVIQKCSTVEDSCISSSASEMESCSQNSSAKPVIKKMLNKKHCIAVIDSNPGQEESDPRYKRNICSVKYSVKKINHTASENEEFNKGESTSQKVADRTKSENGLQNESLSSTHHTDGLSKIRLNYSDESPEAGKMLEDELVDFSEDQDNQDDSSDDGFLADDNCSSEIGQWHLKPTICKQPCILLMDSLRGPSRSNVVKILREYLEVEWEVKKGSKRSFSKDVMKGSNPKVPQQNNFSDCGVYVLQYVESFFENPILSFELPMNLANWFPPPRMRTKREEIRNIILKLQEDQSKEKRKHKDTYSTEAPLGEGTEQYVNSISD
The experiment is described as follows: SAR Analysis of small molecule inhibitors of Sentrin-specific protease 6 (SENP6) using a Luminescent assay. [Related pubchem assays (depositor defined):AID2582, AID2599]. It counts as functional.

In experiment [12] the target is T5, Sentrin-specific protease 7 (Homo sapiens, UniProt Q9BQF6).
T5 sequence (Q9BQF6 whole entry): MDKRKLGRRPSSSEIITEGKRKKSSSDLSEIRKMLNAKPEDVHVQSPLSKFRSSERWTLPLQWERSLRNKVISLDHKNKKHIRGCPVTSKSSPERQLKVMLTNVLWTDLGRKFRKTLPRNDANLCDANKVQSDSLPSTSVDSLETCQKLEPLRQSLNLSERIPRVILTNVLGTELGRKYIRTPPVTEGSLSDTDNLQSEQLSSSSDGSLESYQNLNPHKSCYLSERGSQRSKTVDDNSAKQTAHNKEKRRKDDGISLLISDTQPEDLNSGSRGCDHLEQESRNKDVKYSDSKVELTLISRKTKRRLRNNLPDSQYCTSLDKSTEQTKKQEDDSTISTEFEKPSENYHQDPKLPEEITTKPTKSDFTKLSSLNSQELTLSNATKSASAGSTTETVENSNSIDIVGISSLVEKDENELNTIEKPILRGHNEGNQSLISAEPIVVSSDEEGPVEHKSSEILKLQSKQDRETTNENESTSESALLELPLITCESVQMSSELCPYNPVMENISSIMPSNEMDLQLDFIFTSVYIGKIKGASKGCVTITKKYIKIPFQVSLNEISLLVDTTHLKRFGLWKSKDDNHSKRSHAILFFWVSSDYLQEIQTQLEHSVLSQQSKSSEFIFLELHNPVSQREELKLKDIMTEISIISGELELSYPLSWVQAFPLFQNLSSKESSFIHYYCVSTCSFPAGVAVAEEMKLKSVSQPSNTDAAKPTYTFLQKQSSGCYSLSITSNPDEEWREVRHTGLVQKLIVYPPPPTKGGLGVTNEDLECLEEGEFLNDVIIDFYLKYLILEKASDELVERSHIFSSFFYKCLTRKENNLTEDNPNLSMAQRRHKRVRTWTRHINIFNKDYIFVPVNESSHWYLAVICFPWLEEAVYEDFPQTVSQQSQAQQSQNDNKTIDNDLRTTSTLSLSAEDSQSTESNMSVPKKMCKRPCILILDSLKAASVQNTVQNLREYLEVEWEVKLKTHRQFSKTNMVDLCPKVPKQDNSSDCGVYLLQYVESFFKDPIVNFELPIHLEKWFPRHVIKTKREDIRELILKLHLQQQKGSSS
The experiment is described as follows: SENP7 protease inhibitors, SAR follow-up, biochemical, luminescence (AID 504497). The class given is functional.

The target in a further experiment is T6, Protein Tat (Human immunodeficiency virus type 1 group M subtype B (isolate HXB2)(HIV-1), UniProt P04608).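 Further: tat binding to TAR RNA read out by fluorescence polarization.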
T6 sequence (P04608 whole entry): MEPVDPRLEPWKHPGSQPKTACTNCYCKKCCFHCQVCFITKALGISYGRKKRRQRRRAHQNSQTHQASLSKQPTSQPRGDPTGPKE
It counts as functional.

Experiment [13] is described as follows: Vero cell cytotoxicity, dose response, cytotoxicity control for Vif-APOBEC3G degradation inhibitor project, Vero cells (AID 1117358). The class given is functional. The note with it: Human immunodeficiency virus 1, Vero.
A short description of experiment [14]: Luminescence-based dose response cell-based high throughput screening assay for cytotoxic compounds using the IEC-6 intestinal epithelial cell line. [Related pubchem assays: 1858 (Summary AID.), 1825 (Counterscreen.), 1907 (Confirmation screen.)]. It counts as functional.
Experiment [15] can be described thus: cytotoxicity in HEK-293T cells, dose response, cytotoxicity control for BCR NF-kB inhibitor project, luminescence, B-cell screen hits (AID 489021).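 Further: HEK-293T cells carrying an NF-kB luciferase reporter; cells exposed to compound for about 14 hours before viability readout.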 The class given is functional, cell-based.

The source made the active and inactive calls.

T1 sequence (Q92731 whole entry): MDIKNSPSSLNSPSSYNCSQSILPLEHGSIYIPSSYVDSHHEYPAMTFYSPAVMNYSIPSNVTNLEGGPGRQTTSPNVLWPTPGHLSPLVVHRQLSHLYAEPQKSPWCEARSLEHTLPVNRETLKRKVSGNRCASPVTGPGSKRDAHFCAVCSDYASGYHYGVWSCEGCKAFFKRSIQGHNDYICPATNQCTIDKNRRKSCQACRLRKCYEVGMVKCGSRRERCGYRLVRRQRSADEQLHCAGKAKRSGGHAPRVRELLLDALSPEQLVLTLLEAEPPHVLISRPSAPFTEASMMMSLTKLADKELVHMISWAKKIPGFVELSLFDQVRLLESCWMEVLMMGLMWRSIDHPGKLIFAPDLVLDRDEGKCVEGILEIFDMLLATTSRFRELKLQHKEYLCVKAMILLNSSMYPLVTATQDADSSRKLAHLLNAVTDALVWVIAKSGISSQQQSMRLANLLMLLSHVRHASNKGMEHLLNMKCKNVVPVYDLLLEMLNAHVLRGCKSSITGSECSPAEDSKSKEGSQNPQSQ
Sequence of Large T antigen (P03070 whole entry): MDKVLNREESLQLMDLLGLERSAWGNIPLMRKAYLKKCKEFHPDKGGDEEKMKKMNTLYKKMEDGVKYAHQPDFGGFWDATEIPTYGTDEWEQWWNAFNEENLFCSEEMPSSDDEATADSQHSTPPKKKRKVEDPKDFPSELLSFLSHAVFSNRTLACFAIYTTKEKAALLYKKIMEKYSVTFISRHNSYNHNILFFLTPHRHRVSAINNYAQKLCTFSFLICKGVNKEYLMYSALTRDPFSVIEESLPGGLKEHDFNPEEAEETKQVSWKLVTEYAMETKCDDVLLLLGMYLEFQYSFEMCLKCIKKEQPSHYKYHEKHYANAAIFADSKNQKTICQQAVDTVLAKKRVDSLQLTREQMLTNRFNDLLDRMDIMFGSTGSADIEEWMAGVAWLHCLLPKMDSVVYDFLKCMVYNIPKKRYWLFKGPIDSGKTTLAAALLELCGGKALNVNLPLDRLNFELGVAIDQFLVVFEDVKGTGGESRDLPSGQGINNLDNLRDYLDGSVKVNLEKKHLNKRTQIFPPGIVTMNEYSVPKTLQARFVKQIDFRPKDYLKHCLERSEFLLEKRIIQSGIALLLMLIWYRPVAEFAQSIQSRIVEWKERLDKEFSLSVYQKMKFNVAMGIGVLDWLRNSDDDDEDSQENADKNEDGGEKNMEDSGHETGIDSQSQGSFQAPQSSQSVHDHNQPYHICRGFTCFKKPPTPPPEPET

For orientation: EC50 means the midpoint of the concentration-response curve. As for `Cc1nn(Cc2ccccc2)c(Cl)c1C(=O)NCCc1ccccc1`, the EC50 in experiment [1] was 1.07 µM (active); in experiment [2], < 0.1 µM (active); in experiment [3], < 0.1 µM (active); in experiment [4], 0.367 µM (active); in experiment [5], 0.24 µM (active).

As usually defined, the IC50 is the point on the concentration scale where inhibition reaches its midpoint. Consider `COC(=O)c1ccccc1OCCCOc1ccc(C)cc1OC`, for which the IC50 in [6] was 0.00405 µM (active).

On to `C#CCSc1nsc(SCC#C)c1C#N`, for which the IC50 in experiment [7] is 1.1 µM (active).

`CC(C)(C)c1ccc(C(=O)CSc2nc[nH]n2)cc1`: the EC50 is 1.13 µM (active) in experiment [1]; 3.34 µM (active) in experiment [2]; 88.1 µM (active) in experiment [3]; 0.127 µM (active) in the experiment with H4; 1.09 µM (active) in experiment [4]; 0.58 µM (active) in experiment [5].

As for `O=S(=O)(c1cccs1)N1CCN(c2ccc(O)cc2)CC1`, the IC50 was 2.84 µM (active) in experiment [7] and 6.66 µM (active) at Large T antigen.

With `Cc1cc(C(=O)Nc2sc3c(c2C#N)CCC3)no1`, the IC50 was 11.5 µM (active) at Estrogen receptor beta [8]; < 0.023 µM (not active) against Estrogen receptor beta [9]; > 99 µM (inactive) in experiment [10]; 30.4 µM (active) at Caspase-3; > 99 µM (inactive) in [11]; 52.7 µM (active) in [12].

Turning to `COc1ccc(OC)c(C2C(C(=O)Nc3ccc(F)cc3)=C(C)Nc3nc(CCCO)nn32)c1` (centres undefined), the IC50 at Protein Tat was > 100 µM (active).

The CC50 is the concentration that lowers cell viability or growth by half. Consider `Cc1ccc[n+](-c2[n-]c(=O)sc2C=NNC(=O)c2ccccc2O)c1`, for which the CC50 in experiment [13] is > 40 µM (active).

With `Cc1noc(C)c1COC(=O)c1cccc(S(=O)(=O)N2CCCCCC2)c1`, the CC50 in experiment [13] is > 40 µM (active).

For the compound `Cc1ccc(Nc2nc(N3CCOCC3)nc(N3CCOCC3)n2)cc1C`, the figures for the IC50 in [14] and in experiment [15] were 1.47 µM (active) and > 80 µM (inactive), respectively.

As for `CC(C)c1ccc(/C=C/C(=O)N2CCc3ccccc3C2)cc1`, in [13], the CC50 was > 40 µM (active).

As for `Cc1occc1C(=O)NCCCc1ccccc1`, the IC50 on Estrogen receptor beta [8] is given as > 50 µM (not active).

With `COc1ccc(C(=O)Nc2cnc3ccccn3c2=O)cc1`, the EC50 is 0.755 µM (active) in [1]; 0.129 µM (active) in experiment [2]; < 0.1 µM (active) in experiment [3]; 38.8 µM (active) with H4; 0.53 µM (active) in experiment [4]; 0.36 µM (active) in experiment [5].

These data come from ChEMBL document CHEMBL1201862, “PubChem BioAssay data set” (2004).
